Literature values in patent publication US5431925A, “Nutritive composition for prevention and therapy of infection diseases caused by immunosuppression” (Snow Brand Milk Products Co., Ltd., priority 1991, dated 1995).

Conditions: mouse

| SMILES | LD50 |
| --- | --- |
| CC1=C(/C=C/C(C)=C/C=C/C(C)=C/CO)C(C)(C)CCC1 [retinol] | ≥ 4,100 mg/kg |
| CC1=C(/C=C/C(C)=C/C=C/C(C)=C/C(=O)O)C(C)(C)CCC1 [retinoic acid] | ≥ 4,000 mg/kg |
